Experiments:
[1] = molecular target: T1, CYP2D6 (Homo sapiens, UniProt P10635); experiment: biochemical; format: in vitro ADME
T1 construct: from tissue; host or cells: human liver microsomes
How it was run: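 Human liver microsomes (0.253 mg/mL working stock) pre-incubated with compound and substrate pool at 37° C for 20 min. Reaction started with NADPH and run 10 min at 37° C, stopped with cold ACN. Metabolite analysed by LC-MS/MS; % inhibition and IC50 calculated versus inhibitor-free control.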

[2] = system: laser-induced choroidal neovascularisation (CNV) lesions; experiment: In vivo angiogenesis assay: laser-induced choroidal neovascularisation (CNV); parameters: species or system C57/B6 mice; settings: laser-induced mouse model of CNV; topical eye drops twice daily, 2 mg/mL, 10 μl; one week; FIG. 1(a)
Experimental: In Vivo Angiogenesis Assay: Laser-Induced Choroidal Neovascularisation (CNV) Protocol
6-8 week-old female C57/B6 mice were anesthetized with an intraperitoneal injection of a mixture of 50 mg/kg ketamine and 0.5 mg/kg medetomidine. The pupils were immediately dilated by topical (eyedrop) application with a dilator such as 5% phenylephrine hydrochloride and 1% tropicamide. Four photocoagulation lesions were delivered with a green Merilas 532α laser (450 mW, 130 ms) between the “large” retinal vessels in clear space with no vessels in a peripapillary distribution at a distance of 1-2 disc-diameters in each eye. Only clean laser lesions with a subretinal bubble at the time of treatment were included in the study. Immediately following laser photocoagulation the animals were given topical eye drops of candidate compounds twice daily (2 mg/mL, 10 μl, eyes held for 30 seconds to prevent animal wiping drop away).
After one week, mice were anesthetized with an intraperitoneal injection of a mixture of 50 mg/kg ketamine and 0.5 mg/kg medetomidine. The pupils were immediately dilated by topical (eyedrop) application with a dilator such as 5% phenylephrine hydrochloride and 1% tropicamide. Mice were administered an intraperitoneal injection of sodium fluorescein (10%). […]
The optical density of each well was measured immediately, using a microplate reader set to 450 nm.

[3] = molecular target: T2, CYP2C19 (Homo sapiens, UniProt P33261); experiment: CYP inhibition assay, human liver microsomes, substrate S-mephenytoin; format: in vitro ADME; settings: human liver microsomes, 10 min incubation, LC-MS/MS; read-out: CYP Inhibition Activity (IC50/nM) CYP2C19
T2 construct: from tissue; host or cells: human liver microsomes
How it was run: (§1)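 Inhibition was determined with all substrates combined as a cocktail, a 20 min compound pre-incubation and a 10 min NADPH reaction at 37 °C. IC50 was calculated from LC-MS/MS data.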

[4] = molecular target: T3, CYP2C9 (Homo sapiens, UniProt P11712); experiment: CYP inhibition assay, human liver microsomes, substrate diclofenac; format: in vitro ADME; settings: human liver microsomes, 10 min incubation, LC-MS/MS; read-out: CYP Inhibition Activity (IC50/nM) CYP2C9
T3 construct: from tissue; host or cells: human liver microsomes
How it was run: as §1

[5] = molecular target: T4, CYP1A2 (Homo sapiens, UniProt P05177); experiment: CYP inhibition assay, human liver microsomes, substrate tacrine; format: in vitro ADME; settings: human liver microsomes, 10 min incubation, LC-MS/MS; read-out: CYP Inhibition Activity (IC50/nM) CYP1A2
T4 construct: from tissue; host or cells: human liver microsomes
T4 sequence (P05177 1-516): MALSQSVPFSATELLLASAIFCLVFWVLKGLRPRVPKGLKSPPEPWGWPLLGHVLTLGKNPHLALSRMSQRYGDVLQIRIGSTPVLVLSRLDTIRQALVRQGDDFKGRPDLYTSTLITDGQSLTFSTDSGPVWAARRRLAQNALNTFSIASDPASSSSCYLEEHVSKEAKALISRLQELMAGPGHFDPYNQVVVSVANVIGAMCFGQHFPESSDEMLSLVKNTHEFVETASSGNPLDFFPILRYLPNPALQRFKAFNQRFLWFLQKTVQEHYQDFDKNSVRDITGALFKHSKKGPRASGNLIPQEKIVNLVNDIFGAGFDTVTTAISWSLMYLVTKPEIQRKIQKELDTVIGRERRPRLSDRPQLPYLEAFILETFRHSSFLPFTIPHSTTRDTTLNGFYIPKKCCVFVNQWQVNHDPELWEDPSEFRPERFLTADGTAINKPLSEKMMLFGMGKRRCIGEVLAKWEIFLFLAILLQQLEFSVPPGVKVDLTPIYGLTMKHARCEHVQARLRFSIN
How it was run: as §1

[6] = molecular target: T5, CYP3A4 (Homo sapiens, UniProt P08684); experiment: CYP inhibition assay, human liver microsomes, substrate midazolam; format: in vitro ADME; settings: human liver microsomes, 10 min incubation, LC-MS/MS; read-out: CYP Inhibition Activity (IC50/nM) CYP3A4
T5 construct: from tissue; host or cells: human liver microsomes
How it was run: as §1

[7] = molecular target: SRPK1 (Homo sapiens, UniProt Q96SB4); experiment: In vitro SRPK1 assay (Kinase-Glo); format: biochemical
Sequence of SRPK1 (Q96SB4 whole entry, species assumed): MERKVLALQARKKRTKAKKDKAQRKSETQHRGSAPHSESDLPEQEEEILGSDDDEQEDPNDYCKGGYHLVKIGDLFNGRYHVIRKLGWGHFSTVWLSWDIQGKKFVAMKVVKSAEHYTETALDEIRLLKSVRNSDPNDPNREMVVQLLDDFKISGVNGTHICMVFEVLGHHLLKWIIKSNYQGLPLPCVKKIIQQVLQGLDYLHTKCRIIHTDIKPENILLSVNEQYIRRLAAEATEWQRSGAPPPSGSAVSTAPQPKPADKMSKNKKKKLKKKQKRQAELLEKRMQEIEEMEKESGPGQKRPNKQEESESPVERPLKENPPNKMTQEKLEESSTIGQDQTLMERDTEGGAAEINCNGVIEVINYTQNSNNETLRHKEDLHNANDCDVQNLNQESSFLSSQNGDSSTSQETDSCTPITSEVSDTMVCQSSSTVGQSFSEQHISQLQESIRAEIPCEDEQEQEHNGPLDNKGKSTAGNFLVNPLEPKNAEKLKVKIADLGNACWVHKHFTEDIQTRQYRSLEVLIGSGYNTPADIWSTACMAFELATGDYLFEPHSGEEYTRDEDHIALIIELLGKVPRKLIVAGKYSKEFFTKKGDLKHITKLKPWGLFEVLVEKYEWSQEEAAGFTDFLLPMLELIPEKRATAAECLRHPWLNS

T1 sequence (P10635 whole entry): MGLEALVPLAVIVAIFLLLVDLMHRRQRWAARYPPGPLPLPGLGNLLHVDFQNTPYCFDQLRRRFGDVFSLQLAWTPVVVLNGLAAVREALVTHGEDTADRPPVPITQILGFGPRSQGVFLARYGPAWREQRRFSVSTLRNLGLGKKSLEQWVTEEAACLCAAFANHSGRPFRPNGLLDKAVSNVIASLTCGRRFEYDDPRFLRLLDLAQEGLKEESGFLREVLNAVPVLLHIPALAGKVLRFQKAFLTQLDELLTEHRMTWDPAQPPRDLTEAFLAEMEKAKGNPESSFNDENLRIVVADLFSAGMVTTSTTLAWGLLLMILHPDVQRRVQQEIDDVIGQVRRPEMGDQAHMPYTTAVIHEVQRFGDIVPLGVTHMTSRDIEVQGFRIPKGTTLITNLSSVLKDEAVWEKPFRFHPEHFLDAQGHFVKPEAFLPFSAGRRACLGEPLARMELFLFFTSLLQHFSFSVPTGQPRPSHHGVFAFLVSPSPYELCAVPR
T2 sequence (P33261 whole entry): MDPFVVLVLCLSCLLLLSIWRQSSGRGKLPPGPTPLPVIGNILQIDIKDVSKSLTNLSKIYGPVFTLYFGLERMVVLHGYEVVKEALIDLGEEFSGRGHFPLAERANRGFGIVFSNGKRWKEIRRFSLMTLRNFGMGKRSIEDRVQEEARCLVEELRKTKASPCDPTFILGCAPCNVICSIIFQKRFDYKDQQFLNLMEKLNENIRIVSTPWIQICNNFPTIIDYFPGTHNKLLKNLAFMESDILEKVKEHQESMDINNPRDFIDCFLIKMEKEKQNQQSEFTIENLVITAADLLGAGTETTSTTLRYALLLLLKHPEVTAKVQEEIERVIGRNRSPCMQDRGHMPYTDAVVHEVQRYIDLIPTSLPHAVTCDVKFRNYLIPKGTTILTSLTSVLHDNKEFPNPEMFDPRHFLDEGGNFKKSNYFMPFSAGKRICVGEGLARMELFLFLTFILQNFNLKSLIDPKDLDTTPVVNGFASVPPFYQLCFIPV
T3 sequence (P11712 whole entry): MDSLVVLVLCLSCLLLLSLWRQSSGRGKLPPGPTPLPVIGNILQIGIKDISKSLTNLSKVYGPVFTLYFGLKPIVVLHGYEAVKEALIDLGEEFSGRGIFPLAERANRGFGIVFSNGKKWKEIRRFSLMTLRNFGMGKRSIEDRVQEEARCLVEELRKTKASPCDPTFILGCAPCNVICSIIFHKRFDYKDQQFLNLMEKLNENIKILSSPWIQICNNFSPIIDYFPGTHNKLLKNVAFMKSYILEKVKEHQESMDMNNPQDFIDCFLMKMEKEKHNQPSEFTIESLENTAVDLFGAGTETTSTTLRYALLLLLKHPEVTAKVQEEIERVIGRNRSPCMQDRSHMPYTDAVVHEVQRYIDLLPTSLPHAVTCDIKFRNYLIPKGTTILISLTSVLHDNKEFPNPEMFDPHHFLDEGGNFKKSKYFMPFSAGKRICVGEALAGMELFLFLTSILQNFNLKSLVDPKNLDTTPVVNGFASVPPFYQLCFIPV
T5 sequence (P08684 whole entry): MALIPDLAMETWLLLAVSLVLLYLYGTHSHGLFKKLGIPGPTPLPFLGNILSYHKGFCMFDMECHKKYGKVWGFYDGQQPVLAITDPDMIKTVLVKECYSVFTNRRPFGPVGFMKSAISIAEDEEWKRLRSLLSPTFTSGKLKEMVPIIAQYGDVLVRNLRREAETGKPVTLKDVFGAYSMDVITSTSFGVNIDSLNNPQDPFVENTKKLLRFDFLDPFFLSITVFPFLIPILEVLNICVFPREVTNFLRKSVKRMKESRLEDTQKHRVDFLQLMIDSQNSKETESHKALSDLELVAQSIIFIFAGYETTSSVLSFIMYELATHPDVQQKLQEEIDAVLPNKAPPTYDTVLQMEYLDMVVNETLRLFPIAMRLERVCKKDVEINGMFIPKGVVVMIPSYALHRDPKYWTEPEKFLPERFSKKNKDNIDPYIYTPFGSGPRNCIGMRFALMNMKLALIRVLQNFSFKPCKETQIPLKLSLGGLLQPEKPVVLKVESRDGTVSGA

**Q.** With CC1(O)CCN(c2ccc(Cl)cc2NC(=O)c2ccc(C3CCOCC3)o2)CC1 [Example 12] as the compound, how does the IC50 [1] read?
**A.** 23.2 µM

**Q.** What about the “anti-angiogenic activity on lesion size” value [2] of the same compound?
**A.** improved anti-angiogenic activity on lesion size and the same efficacy as reference compounds

**Q.** And the IC50 [3]?
**A.** 11800 nM

**Q.** And the IC50 [4]?
**A.** 6980 nM

**Q.** And the IC50 [5]?
**A.** 13900 nM

**Q.** What about the IC50 [6] of the same compound?
**A.** 2660 nM

**Q.** And the IC50 [7]?
**A.** 0.3 nM

**Q.** For CN1CCC2(CCN(c3ccc(C(F)(F)F)cc3NC(=O)c3ccc(C4CCOCC4)o3)CC2)C1=O [Example 100, N-(2-(2-methyl-1-oxo-2,8-diazaspiro[4.5]decan-8-yl)-5-(trifluoromethyl)phenyl)-5-(tetrahydro-2H-pyran-4-yl)furan-2-carboxamide], which IC50 [1] is on record?
**A.** 13.8 µM

**Q.** What about the IC50 [3] of the same compound?
**A.** 3200 nM

**Q.** What about the IC50 [4] of the same compound?
**A.** 7300 nM

**Q.** What about the IC50 [5] of the same compound?
**A.** > 30000 nM

**Q.** And the IC50 [6]?
**A.** 2700 nM

**Q.** What about the IC50 [7] of the same compound?
**A.** 2.6 nM

**Q.** Which IC50 [1] does the source give for CC1(N)CCN(c2ccc(C(F)(F)F)cc2NC(=O)c2ccc(C3CCOCC3)o2)CC1 [Example 101, N-(2-(4-amino-4-methylpiperidin-1-yl)-5-(trifluoromethyl)-phenyl)-5-(tetrahydro-2H-pyran-4-yl)furan-2-carboxamide] here?
**A.** 4.8 µM

**Q.** What about the IC50 [3] of the same compound?
**A.** > 30000 nM

**Q.** And the IC50 [4]?
**A.** > 30000 nM

**Q.** What about the IC50 [5] of the same compound?
**A.** > 30000 nM

**Q.** And the IC50 [6]?
**A.** > 30000 nM

**Q.** And the IC50 [7]?
**A.** 15.1 nM

**Q.** Which results are given for CC1(N)CCN(c2ccc(C(F)(F)F)cc2NC(=O)c2ccc(-c3ccncc3)o2)CC1 [Example 102, N-(2-(4-amino-4-methylpiperidin-1-yl)-5-(trifluoromethyl)phenyl)-5-(pyridin-4-yl)furan-2-carboxamide]?
**A.** IC50 [1]: 0.1 µM; IC50 [3]: 9400 nM; IC50 [4]: 14100 nM; IC50 [5]: > 30000 nM; IC50 [6]: 3900 nM; IC50 [7]: 44.6 nM

Reference: US11420969B2 (Exonate Limited, priority 2017, dated 2022)
